# Test results reported in EPA's ToxValDB 9.5.
# “And” between values parts separate entries of the source, which are not always exact repeats. Equal values may be shown once.
# Tested on: Rattus norvegicus
# [1] = short-term, duration: 2 weeks, inhalation, F, Wistar, generation: P0, P0: Lung: Lung Weight, Relative
# [2] = short-term, duration: 2 weeks, inhalation, M, Wistar, generation: P0, P0: Lung: Lung Weight, Relative
# [3] = short-term, duration: 28 days, inhalation, F, Wistar, Teeth: Incisors, Discolored
# [4] = short-term, duration: 28 days, inhalation, M, Wistar, Teeth: Incisors, Discolored
# [5] = short-term, duration: 28 days, oral, gavage, F, Wistar, Blood: Red Cell Distribution Width (RDW) + Liver: Total Cholesterol (CHOL)
# [6] = short-term, duration: 28 days, oral, gavage, M, Wistar, Blood: Hemoglobin (HGB) + Liver: Total Bilirubin (TBILI)
# [7] = developmental, duration: 24 days, oral, gavage, M/F, Sprague-Dawley, generation: F1, F1: Whole Body: Pup Weight per Litter, PND1
# [8] = reproduction developmental, duration: 24 days, oral, gavage, F, Sprague-Dawley, generation: P0, P0: Whole Body: Clinical Signs
# [9] = reproduction developmental, duration: 24 days, oral, gavage, F, Sprague-Dawley, generation: P0, P0: Whole Body: Feed Consumption, Absolute + P0: Whole Body: Maternal Body Weight Change + P0: Whole Body: Mortality + P0: Whole Body: No. …
# [10] = short-term, duration: 28 days, oral, gavage, F, Wistar, Adrenal: Adrenal Gland Weight, Absolute + Adrenal: Adrenal Gland Weight, Relative + Kidney: Creatinine (CREAT) + Multi-Organ: Calcium (CA)
# [11] = short-term, duration: 28 days, oral, gavage, M, Wistar, Blood: Hematocrit (HCT) + Blood: Hemoglobin (HGB) + Kidney: Urea + Liver: Alkaline Phosphatase (ALP) + Liver: Liver, Enlarged + Multi-Organ…
# [12] = short-term, duration: 28 days, oral, gavage, M, Wistar, Liver: Liver Weight, Absolute + Multi-Organ: Glucose (GLU) + Multi-Organ: Potassium (K)
# [13] = subchronic, duration: 90 days, oral, gavage, F, Sprague-Dawley, Kidney: Calcium (CA) Excretion + Multi-Organ: White Blood Cell (WBC)
# [14] = subchronic, duration: 90 days, oral, gavage, M, Sprague-Dawley, Blood: Hematocrit (HCT) + Blood: Hemoglobin (HGB)
# [15] = subchronic, duration: 90 days, oral, gavage, M, Sprague-Dawley, Blood: Red Blood Cell (RBC) + Liver: Aspartate Aminotransferase (AST) + Multi-Organ: Prothrombin Time (PT)
structure (smiles),measurement,setting,value
F/C(=C(/F)C(F)(C(F)(F)F)C(F)(F)F)C(F)(F)F [(E)-Perfluoro(4-methyl-2-pentene)],LOAEL,"acute, duration: 4 hours, inhalation, F, Wistar, Central Nervous System: Hunched Posture + Central Nervous System: Ruffled Fur + Lung: Lung, Non-Neoplastic Lesions + Lung: Tachypnea + Whole…",21.7 mg/L
same,LOAEL,"acute, duration: 4 hours, inhalation, M, Wistar, Central Nervous System: Frightened behavior + Central Nervous System: Ruffled Fur + Central Nervous System: Tremor + Lung: Lung, Non-…",21.7 mg/L
same,NOAEL,"developmental, duration: 2 weeks, inhalation, M/F, Wistar, generation: F1, F1: Whole Body: Clinical Signs + F1: Whole Body: Fetal Alterations, Total + F1: Whole Body: Male Pups per Pups Sexed + F1: Whole Body: Pup …",4290 mg/m3 and 4300 mg/m3
same,NOAEL,"reproduction developmental, duration: 2 weeks, inhalation, F, Wistar, generation: P0, P0: Ovary: Corpora Lutea + P0: Uterus: Implantation + P0: Whole Body: Dams with Stillborn Pups + P0: Whole Body: Days of Cohabitation + P0: …",4290 mg/m3 and 4300 mg/m3
same,NOAEL,"reproduction developmental, duration: 2 weeks, inhalation, M, Wistar, generation: P0, P0: Whole Body: Days of Cohabitation + P0: Whole Body: Fertility Index + P0: Whole Body: Percent Mating",4290 mg/m3 and 4300 mg/m3
same,NOAEL,"short-term, duration: 2 weeks, inhalation, F, Wistar, generation: P0, P0: Kidney: Kidney, Faded + P0: Liver: Liver Weight, Absolute + P0: Liver: Liver Weight, Relative + P0: Lung: Lung Weight, Absolute + P0: …",4290 mg/m3 and 4300 mg/m3
same,LOAEL,"short-term, duration: 2 weeks, inhalation, F, Wistar, generation: P0, P0: Kidney: Kidney, Faded + P0: Thymus: Thymus, Small + P0: Whole Body: Body Weight Change + P0: Whole Body: Body Weight, Absolute + P0: …",9200 mg/m3
same,LOAEL,[1],4290 mg/m3 and 4300 mg/m3
same,NOAEL,[1],1840 mg/m3
same,NOAEL,"short-term, duration: 2 weeks, inhalation, M, Wistar, generation: P0, P0: Epididymis: Epididymis Weight, Absolute + P0: Epididymis: Epididymis Weight, Relative + P0: Epididymis: Epididymis, Duct, Exfoliated …",4290 mg/m3 and 4300 mg/m3
same,LOAEL,"short-term, duration: 2 weeks, inhalation, M, Wistar, generation: P0, P0: Epididymis: Epididymis, Small + P0: Kidney: Kidney, Faded + P0: Prostate: Prostate, Small + P0: Seminal Vesicle: Seminal Vesicle, Small…",9200 mg/m3
same,LOAEL,[2],4290 mg/m3 and 4300 mg/m3
same,NOAEL,[2],1840 mg/m3
same,NOAEL,"short-term, duration: 2 weeks, inhalation, M, Wistar, generation: P0, P0: Whole Body: Feed Consumption, Absolute",9200 mg/m3
same,NOAEL,"short-term, duration: 28 days, inhalation, F, Wistar, Adrenal: Adrenal Gland Weight, Absolute + Blood: Albumin/Globulin (A/G) Ratio + Blood: Hemoglobin (HGB) + Blood: Mean Cell Volume (MCV) + …",3070 mg/m3
same,LOAEL,[3],3070 mg/m3
same,NOAEL,[3],1230 mg/m3 and 1220 mg/m3
same,NOAEL,"short-term, duration: 28 days, inhalation, M, Wistar, Adrenal: Adrenal Gland Weight, Absolute + Blood: Albumin/Globulin (A/G) Ratio + Blood: Hemoglobin (HGB) + Blood: Mean Cell Volume (MCV) + …",3070 mg/m3
same,LOAEL,[4],3070 mg/m3
same,NOAEL,[4],1230 mg/m3 and 1220 mg/m3
same,NOAEL,"short-term, duration: 28 days, oral, gavage, F, Wistar, Adrenal: Adrenal Gland Histopathology + Blood: Mean Cell Hemoglobin (MCH) + Blood: Platelet Count (PLT) + Bone: Femur Histopathology + Bone…",450 mg/kg-day
same,LOAEL,"short-term, duration: 28 days, oral, gavage, F, Wistar, Blood: Hematocrit (HCT) + Blood: Hemoglobin (HGB), Recovery + Blood: Mean Cell Volume (MCV) + Blood: Red Blood Cell (RBC) + Calcium (CA) + …",450 mg/kg-day
same,NOAEL,"short-term, duration: 28 days, oral, gavage, F, Wistar, Blood: Hematocrit (HCT) + Blood: Mean Cell Volume (MCV) + Blood: Red Blood Cell (RBC) + Calcium (CA) + Chloride (CL) + Gamma-glutamyl …",150 mg/kg-day
same,LOAEL,"short-term, duration: 28 days, oral, gavage, F, Wistar, Blood: Hemoglobin (HGB) + Blood: Mean Cell Hemoglobin Concentration (MCHC) + Liver: Liver Weight, Absolute + Spleen: Spleen Weight, Absolute",50 mg/kg-day
same,LOAEL,[5],150 mg/kg-day
same,NOAEL,[5],50 mg/kg-day
same,NOAEL,"short-term, duration: 28 days, oral, gavage, M, Wistar, Adrenal: Adrenal Gland Histopathology + Bone: Femur Histopathology + Bone: Sternum Histopathology + Brain: Brain Weight, Absolute, Recovery…",450 mg/kg-day
same,LOAEL,"short-term, duration: 28 days, oral, gavage, M, Wistar, Blood: Hematocrit (HCT) + Blood: Mean Cell Hemoglobin Concentration (MCHC), Recovery + Blood: Mean Cell Volume (MCV) + Blood: Platelet Count…",450 mg/kg-day
same,NOAEL,"short-term, duration: 28 days, oral, gavage, M, Wistar, Blood: Hematocrit (HCT) + Blood: Mean Cell Volume (MCV) + Blood: Platelet Count (PLT) + Blood: Red Blood Cell (RBC) + Blood: Red Cell …",150 mg/kg-day
same,LOAEL,[6],150 mg/kg-day
same,NOAEL,[6],50 mg/kg-day
same,LOAEL,"short-term, duration: 28 days, oral, gavage, M, Wistar, Blood: Mean Cell Hemoglobin (MCH) + Blood: Mean Cell Hemoglobin Concentration (MCHC) + Brain: Brain Weight, Absolute + Testis: Testis Weight…",50 mg/kg-day
"O=C([O-])C(F)(F)C(F)OC(F)(F)C(F)(F)C(F)(F)OC(F)(F)F.[NH4+] (centres undefined) [Ammonium 4,8-dioxa-3H-perfluorononanoate]",NOAEL,"developmental, duration: 24 days, oral, gavage, M/F, Sprague-Dawley, generation: F1, F1: Whole Body: Dams with Stillborn Pups + F1: Whole Body: Delivered Litters + F1: Whole Body: Live Pups Born + F1: Whole Body: Mean Pups …",270 mg/kg-day
same,LOAEL,"developmental, duration: 24 days, oral, gavage, M/F, Sprague-Dawley, generation: F1, F1: Whole Body: No Milk in Stomach + F1: Whole Body: Pup Weight per Litter, PND4 + F1: Whole Body: Pup Weight per Litter, PND6 + F1: Whole …",270 mg/kg-day
same,LOAEL,[7],90 mg/kg-day
same,NOAEL,[7],30 mg/kg-day
same,NOAEL,"developmental, duration: 24 days, oral, gavage, M/F, Sprague-Dawley, generation: F1, F1: Whole Body: Pup Weight per Litter, PND4 + F1: Whole Body: Pup Weight per Litter, PND6 + F1: Whole Body: Survival, PND1 + F1: Whole Body…",90 mg/kg-day
same,NOAEL,"reproduction developmental, duration: 24 days, oral, gavage, F, Sprague-Dawley, generation: P0, P0: Uterus: Resorptions, Early + P0: Whole Body: Feed Consumption, Absolute + P0: Whole Body: Length of Gestation + P0: Whole Body: Length …",270 mg/kg-day
same,LOAEL,[8],90 mg/kg-day
same,NOAEL,[8],30 mg/kg-day
same,LOAEL,[9],270 mg/kg-day
same,NOAEL,[9],90 mg/kg-day
same,LOAEL,[10],100 mg/kg-day
same,NOAEL,[10],30 mg/kg-day
same,NOAEL,"short-term, duration: 28 days, oral, gavage, F, Wistar, Blood: Activated Partial Thromboplastin Time (APTT) + Blood: Albumin/Globulin (A/G) Ratio + Blood: Hematocrit (HCT) + Blood: Hemoglobin (HGB…",100 mg/kg-day
same,NOAEL,"short-term, duration: 28 days, oral, gavage, M, Wistar, Adrenal: Adrenal Gland Weight, Absolute + Adrenal: Adrenal Gland Weight, Relative + Blood: Activated Partial Thromboplastin Time (APTT) + …",100 mg/kg-day
same,LOAEL,[11],100 mg/kg-day
same,NOAEL,[11],30 mg/kg-day
same,LOAEL,"short-term, duration: 28 days, oral, gavage, M, Wistar, Liver: Hepatocellular Hypertrophy + Liver: Liver Weight, Relative + Liver: Total Bilirubin (TBILI)",10 mg/kg-day
same,LOAEL,[12],30 mg/kg-day
same,NOAEL,[12],10 mg/kg-day
same,NOAEL,"subchronic, duration: 90 days, oral, gavage, F, Sprague-Dawley, Adrenal: Adrenal Gland Weight, Absolute + Adrenal: Adrenal Gland Weight, Relative + Blood: Activated Partial Thromboplastin Time (APTT) + …",100 mg/kg-day
same,LOAEL,[13],100 mg/kg-day
same,NOAEL,[13],30 mg/kg-day
same,NOAEL,"subchronic, duration: 90 days, oral, gavage, M, Sprague-Dawley, Adrenal: Adrenal Gland Weight, Absolute + Adrenal: Adrenal Gland Weight, Relative + Blood: Activated Partial Thromboplastin Time (APTT) + …",10 mg/kg-day
same,LOAEL,[14],3 mg/kg-day
same,NOAEL,[14],1 mg/kg-day
same,LOAEL,[15],10 mg/kg-day
same,NOAEL,[15],3 mg/kg-day
